The source of these data is patent US20090062255A1, “TUMOR-TARGETING EVALUATION METHODOLOGY AND COMPOUNDS RELATED THERETO” (THALLION PHARMACEUTICALS INC., priority 2007, published 2009).

Assay [1] has as its target T1, PBR (Rattus norvegicus, UniProt P16257).
T1 construct: from tissue; host or cells: orthotopic rat C6 glioma in Sprague-Dawley rats, in vivo
As to the kind of experiment: In vivo PBR occupancy by PET (11C-(R)-PK11195) following IP administration. Conditions: 30 mg/kg IP. As for the experimental part: (R)-1-(2-chlorophenyl)-N-methyl-N-(1-methyl-propyl)-3-isoquinoline carboxamide (R N-desmethyl PK11195), the precursor for the radioisotope-labeled (R) —PK11195, was purchased from ABX (Radeburg, Germany). The synthesis of ^11C-(R)-PK11195 was accomplished by a modification of the method of Camsonne et al. (J. Label. Compd. Radiopharm., 21: 985-991,1984). Briefly, ^11C-methyl iodide (^11C—CH3I) was transferred by a stream of nitrogen gas at a flow rate of 10 ml/min into a reaction medium containing 1 mg or R—N-desmethyl PK11195 previously dissolved in 0.5 mL of dimethylsulfoxide (DMSO) and about 20 mg of sodium hydroxide. The reaction was initiated at room temperature, with a bubbling of the ^11C—CH3I being continued over a 5 minute period. After bubbling was complete, the reaction mixture was left standing for 5 minutes. Purification was performed by high pressure liquid chromatography (HPLC) using a reverse-phase C18 column and a methanol:ammonium formate (20 mM) (80:20) mixture and a mobile phase at a flow rate of 3 mL/min. ^11C—(R) —PK11195 was eluted at 11 minutes and obtained with a specific radioactivity of […].
In vivo PET studies were performed 14 days post tumor implantation. […] Attenuation correction factors, for each rat (total of 7 animals), were determined using a 10 min ^57Co transmission scan acquired immediately prior to the dynamic scan. […]

Assay [2] has as its system human breast cell line MCF-7. As to the kind of experiment: Growth inhibitory MTT assay, MCF-7. The assay is classed as cell-based. Conditions: 72 hours, treated over control. Here is the method: (§1) Growth inhibitory activity of ECO-4601 (Compound 1) and other dibenzodiazepinone analogs was evaluated on a panel of 4 human tumor cell lines: the human uterine sarcoma MES-SA and its doxorubicin-resistant P-glycoprotein over-expressing variant, MES-SA/DX5 as well as non-aggressive and highly aggressive human breast cell lines, MCF-7 and MDA-MB-231, respectively. These four cell lines were obtained from the American Type Culture Collection (Manassas, Va.) and cultured in RPMI plus 10% fetal bovine serum (FBS) and maintained at 37° C. with 5% CO2.
(§2) Exponentially growing cells (5,000 cells per well time; cell number determined with a hemocytometer) were seeded in 96-well flat-bottom plates and allowed to grow overnight. Cells were then incubated for 72 hours with three different concentrations of ECO-4601 or analogs: 30,10, and 3 μM. The in vitro growth inhibitory activity was determined by a commercial MTT assay. All measurements were done in quadruplicate and each experiment was performed 2-3 times. The lower the value, the more cytotoxic is the compound.
In general terms: Tetrazolium dyes change colour on reduction, which living cells bring about.

Assay [3] deals with human uterine sarcoma MES-SA. As to the kind of experiment: Growth inhibitory MTT assay, MES-SA. The assay is classed as cell-based. As to conditions: 72 hours, treated over control. As for the experimental part:
as §1, §2

The test system of assay [4] is human breast cell line MDA-MB-231. As to the kind of experiment: Growth inhibitory MTT assay, MDA-MB-231. The assay is classed as cell-based. As to conditions: 72 hours, treated over control. Here is the method:
as §1, §2

Assay [5] deals with T2, peripheral benzodiazepine receptor (PBR) (Rattus norvegicus, UniProt P16257).
T2 construct: CBR and PBR were obtained from rat brain and heart membrane-fractions, respectively; from tissue; host or cells: Wistar rat heart membranes
As to the kind of experiment: In-house PBR binding assay ([3H]PK11195, rat heart mitochondrial membranes). As to conditions: in-house radioligand-binding assay.

The subject of assay [6] is MES-SA/DX5 (doxorubicin-resistant P-glycoprotein over-expressing variant). As to the kind of experiment: Growth inhibitory MTT assay, MES-SA/DX5. It is filed as cell-based, human. Conditions: 72 hours, treated over control. As for the experimental part:
as §1, §2

In the case of “10-farnesyl-4,6,8-trihydroxy-5,10-dihydrodibenzo[b,e][1,4]diazepin-11-one [Compound 1]”, the “reduction of PBR occupancy for 11C-(R)-PK11195 binding, average” value in assay [1] was 31%.
As a reminder, the IC50 is the concentration needed to halve the response being measured. High values mean weaker potency in that assay, low ones greater potency in that assay. As to `CC(C)=CCC/C(C)=C/CC/C(C)=C/CN1C(=O)c2cccc(O)c2Nc2c1cc(O)c(C1CCCO1)c2O` (stereo not drawn) [Compound 100], the “% T/C at 10 μM” value in assay [2] is recorded as 38%; in assay [3] it was 18%; in assay [4], 43%; in assay [6], 86%. The IC50 in assay [5] was found to be 10 nM.
